≈ marks a conversion by molar mass, not a printed value. Where “and” joins values, the source holds several entries; their conditions need not be identical. Equal entries are not always repeated.
Tests used:
NHDF cells = assay: Skin type I collagen synthesis promoting assay (ELISA, with MTT); type: cell-based, human; conditions: fold of control
Method: The assay for measuring the promotion of skin collagen synthesis was described by Kishikawa et al.. Adult NHDF cells (Lonza, Tokyo) were routinely maintained in 10% FBS and 1% antibiotic-antimycotic (Invitrogen) in Dulbecco’s modified Eagle’s medium (DMEM, Wako). After growing to confluence, cells at a density of 5 × 10^3 cells/well were seeded on 96-well plates for 24 h before the treatment. The medium was replaced with a mixture of 1 μL of sample solution (DMSO < 0.5% per well) and 99 μL of DMEM supplemented with 0.5% FBS. After 72 h of cultivation, the amount of collagen in the medium was measured using a human type I collagen enzyme-linked immunosorbent assay (ELISA) kit (ACEL, Kanagawa, Japan). The amount of collagen production was calculated using a standard curve prepared by measurement by the same ELISA. The cells remaining in the 96-well plate were subjected to an MTT assay. Ascorbic acid (100 μM, Wako) was used as a positive control.

RBL-2H3 cells [1] = assay: β-hexosaminidase release from IgE-stimulated RBL-2H3 mast cells; type: cell-based, rat; conditions: 25 μg/mL
Method: (§1) The anti-allergy assay was based mostly on the methods described by Zhu et al. and Yun et al. with slight modification. Rat basophilic leukemia (RBL-2H3) cells were obtained from the Riken Bio-resource Center Cell Bank (Tsukuba, Japan). RBL-2H3 cells were incubated in EMEM medium containing 10% FBS and 1% antibiotics–antimycotics at 37 °C. The cells were seeded on a 96-well plate (2 × 10^5 cells/well). After 24 h of incubation, the medium was supplemented with 0.5 μg/mL anti-DNP (dinitrophenol) mouse immunoglobulin E (IgE) (Sigma-Aldrich). After an additional 24 h of incubation, the medium was replaced with 100 μL of Tyrode buffer. The sample dissolved in DMSO (<0.5% per well) was added, and the cell plate was incubated again for 30 min, then replaced with 100 μL of tyrode buffer containing 50 μg/mL DNP-bovine serum albumin (BSA) (Invitrogen, Carlsbad, CA, USA). After 1 h of incubation, 50 μL of the supernatant was collected from each well and mixed with 50 μL of substrate solution (p-nitrophenyl-N-acetyl-β-glucosaminide, 2 mM; Sigma-Aldrich) in a new 96-well plate. The mixture was incubated at room temperature on a shaker for 3 h. Finally, 100 μL of stop solution was added, and the absorbance was read at 405 nm. A parallel MTT experiment was performed to measure the cell viability. The MTT experiment was done exactly as described.

Propionibacterium acnes = assay: Anti-bacterial assay (growth inhibition, MIC/MBC by broth microdilution); type: cell-based; conditions: for Inhibition Rate (P. acnes growth): concentration 100 μg/mL; for activity against P. acnes (in words): at their maximum solubility
Method: The antibacterial assay was based mostly on the methods described by Tanaka et al. with slight modification. Propionibacterium acne (NBRC 107605) was used for the antibacterial assay. A single colony of the test strain was taken and 5 mL of Gifu anaerobic medium (GAM) broth (Nissui, Tokyo) was added to it. This culture was incubated at 37 °C for 30 h. It was then added to the bacterial suspension to prepare a bacterial concentration at 10^5 CFU/mL. The bacterial solution was used for the subsequent antibacterial assay. Each compound was dissolved in DMSO, and benzalkonium chloride (Wako) was used as a positive control. The plate was incubated at 37 °C for 30 h. Finally, bacterial growth was measured by a microplate reader at 630 nm. The MIC and MBC were evaluated by the standard broth microdilution method.

RBL-2H3 cells [2] = assay: Cell viability of RBL-2H3 cells (parallel MTT); type: cell-based, rat; conditions: 25 μg/ml, RBL-2H3 cells
Method: as §1

B16 melanoma cells [3] = assay: Anti-melanogenesis assay (melanin content); type: cell-based, mouse; conditions: for Inhibition rate (100% − melanin synthesis): B16 cells; for IC50 melanin / IC50: B16 melanoma cells; for IC50: read-out: IC50 (melanin synthesis)
Method: (§2) This assay was performed as described by Arung et al.. The mouse melanoma cell line B16 was obtained from the Riken Bioresource Center Cell Bank (Tsukuba, Japan). The B16 melanoma cells were maintained in Eagle’s Minimal Essential Medium (EMEM, Nissui Chemical, Tokyo) supplemented with 10% (v/v) fetal bovine serum (FBS; Gibco, Carlsbad, CA, USA) and 0.09 mg/mL theophylline (Sigma-Aldrich, St. Louis, MO, USA). […] After 24 h, test samples were dissolved in DMSO (<0.2% per well) and sample solution were added to each well. Arbutin (Tokyo Kasei Kogyo, Tokyo) was used as a positive control. The cells were incubated for an additional 48 h, and then the medium was replaced with fresh medium containing each sample again. After 24 h, the melanin content and the cell viability were measured using a microplate reader (BioTek-ELX800, BioTek Instruments, Winooski, VT, USA) at 405 nm and 570 nm, respectively. Cell viability was measured using the MTT (3-(4,5-dimethylthiazol-2-yl)-2,5-diphenyltetrazolium bromide) method.

B16 melanoma cells [4] = assay: Cell viability of B16 melanoma cells (MTT); conditions: for Inhibition rate (100% − cell viability): B16 cells; for CC50 cell viability / CC50: B16 melanoma cells, MTT; for CC50: read-out: CC50 (cell viability)
Method: as §2

| IC50 melanin (B16 melanoma cells [3]) | IC50 (B16 melanoma cells [3]) | SMILES | CP/CV value (collagen production %/cell viability %) (NHDF cells; 5 μg/mL) | Inhibition Rate (β-hexosaminidase release) (RBL-2H3 cells [1]) | Inhibition Rate (P. acnes growth) (Propionibacterium acnes) | Cell viability (RBL-2H3 cells [2]) | Inhibition rate (100% − melanin synthesis) (B16 melanoma cells [3]; 1 μg/ml) | Inhibition rate (100% − melanin synthesis) (B16 melanoma cells [3]; 2.5 μg/ml) | Inhibition rate (100% − melanin synthesis) (B16 melanoma cells [3]; 5 μg/ml) | Inhibition rate (100% − melanin synthesis) (B16 melanoma cells [3]; 10 μg/ml) | Inhibition rate (100% − cell viability) (B16 melanoma cells [4]; 1 μg/ml) | Inhibition rate (100% − cell viability) (B16 melanoma cells [4]; 2.5 μg/ml) | Inhibition rate (100% − cell viability) (B16 melanoma cells [4]; 5 μg/ml) | Inhibition rate (100% − cell viability) (B16 melanoma cells [4]; 10 μg/ml) | CC50 cell viability (B16 melanoma cells [4]) | CC50 (B16 melanoma cells [4]) | CP/CV value (collagen production %/cell viability %) (NHDF cells; 10 μg/mL) | activity against P. acnes (in words) (Propionibacterium acnes) | CP/CV value (collagen production %/cell viability %) (NHDF cells; 1 μg/mL) | Inhibition rate (100% − melanin synthesis) (B16 melanoma cells [3]; 0.5 μg/ml) |
| --- | --- | --- | --- | --- | --- | --- | --- | --- | --- | --- | --- | --- | --- | --- | --- | --- | --- | --- | --- | --- |
| 6.2 µg/mL (≈ 12.7 µM) | 12.8 µM | COC(=O)[C@]12CCC(C)(C)C[C@@H]1C1=CC[C@@H]3[C@@]4(C)C[C@@H](O)[C@H](O)C(C)(C)C4CC[C@@]3(C)[C@]1(C)CC2 (stereo partly shown) [Compound 5, Methyl maslinate] | 1.2 | 8.5 ± 9.5% | – (no inhibition) | 105.8 ± 1.1% | 0.0 ± 4.4% | 1.6 ± 0.6% | 44.8 ± 4.3% | 68.2 ± 0.6% | 4.7 ± 8.1% | 1.3 ± 5.2% | 12.1 ± 8.6% | 75.9 ± 0.5% | 8.4 µg/mL (≈ 17.3 µM) | 17.5 µM |  |  |  |  |
| 7.8 µg/mL (≈ 16 µM) | 16.1 µM | COC(=O)[C@]12CC[C@@H](C)[C@H](C)[C@H]1C1=CC[C@@H]3[C@@]4(C)C[C@@H](O)[C@H](O)C(C)(C)[C@@H]4CC[C@@]3(C)[C@]1(C)CC2 [Compound 6, methyl corosolate] | 2.4 | 2.4 ± 14.1% | 77.9 ± 1.6% | 97.6 ± 14.1% | 0.0 ± 1.9% | 2.8 ± 4.5% | 32.7 ± 1.5% | 63.5 ± 2.7% | 4.5 ± 13.7% | 10.5 ± 10.9% | 15.4 ± 5.1% | 59.4 ± 7.0% | 9.1 µg/mL (≈ 18.7 µM) | 18.7 µM | 3.4 and 3.6 | active |  |  |
| 7.2 µg/mL (≈ 14.8 µM) | 14.8 µM | C[C@@H]1CC[C@]2(C(=O)O)CC[C@]3(C)C(=CC[C@@H]4[C@@]5(C)CCC(=O)C(C)(C)[C@@H]5[C@H](O)C[C@]43C)[C@@H]2[C@]1(C)O [Compound 14, 6β,19-dihydroxyurs-12-en-3-oxo-28-oic acid] | 1.4 |  | 87.6 ± 7.4% | 66.8 ±11.1% | 6.9 ± 1.8% | 15.8 ± 1.8% | 39.5 ± 3.1% | 67.3 ± 1.4% | 2.5 ± 8.3% | 1.2 ± 9.7% | 44.1 ± 0.4% | 69.1 ± 10.0% | 5.3 µg/mL (≈ 10.9 µM) | 10.9 µM | 1.1 | active | 1.2 |  |

| SMILES | IC50 melanin (B16 melanoma cells [3]) | IC50 (B16 melanoma cells [3]) | CP/CV value (collagen production %/cell viability %) (NHDF cells; 5 μg/mL) | Inhibition Rate (β-hexosaminidase release) (RBL-2H3 cells [1]) | Inhibition Rate (P. acnes growth) (Propionibacterium acnes) | Cell viability (RBL-2H3 cells [2]) | Inhibition rate (100% − melanin synthesis) (B16 melanoma cells [3]; 1 μg/ml) | Inhibition rate (100% − melanin synthesis) (B16 melanoma cells [3]; 2.5 μg/ml) | Inhibition rate (100% − melanin synthesis) (B16 melanoma cells [3]; 5 μg/ml) | Inhibition rate (100% − melanin synthesis) (B16 melanoma cells [3]; 10 μg/ml) | Inhibition rate (100% − cell viability) (B16 melanoma cells [4]; 1 μg/ml) | Inhibition rate (100% − cell viability) (B16 melanoma cells [4]; 2.5 μg/ml) | Inhibition rate (100% − cell viability) (B16 melanoma cells [4]; 5 μg/ml) | Inhibition rate (100% − cell viability) (B16 melanoma cells [4]; 10 μg/ml) | CC50 cell viability (B16 melanoma cells [4]) | CC50 (B16 melanoma cells [4]) | CP/CV value (collagen production %/cell viability %) (NHDF cells; 10 μg/mL) | activity against P. acnes (in words) (Propionibacterium acnes) | CP/CV value (collagen production %/cell viability %) (NHDF cells; 1 μg/mL) | Inhibition rate (100% − melanin synthesis) (B16 melanoma cells [3]; 0.5 μg/ml) |
| --- | --- | --- | --- | --- | --- | --- | --- | --- | --- | --- | --- | --- | --- | --- | --- | --- | --- | --- | --- | --- |
| C[C@H]1[C@H](C)CC[C@]2(C(=O)O)CC[C@]3(C)C(=CC[C@@H]4[C@@]5(C)CCC(=O)C(C)(C)[C@@H]5CC[C@]43C)[C@H]12 [Compound 13, 3-oxours-12-en-28-oic acid] | 8.1 µg/mL (≈ 17.8 µM) | 18 µM | 1.2 |  | – (no inhibition) | 85.6 ± 4.2% | 41.0 ± 2.1% | 39.7 ± 0.6% | 45.5 ± 2.7% | 52.9 ± 0.6% | 39.1 ± 2.6% | 42.7 ± 2.1% | 51.5 ± 3.7% | 80.3 ± 3.0% | 4.0 µg/mL (≈ 8.8 µM) | 8.9 µM | 1.4 |  | 1.2 | 37.4 ± 1.1% |
